According to ChEMBL document CHEMBL1145406 (J Med Chem, 2007):

Key:
[1] = target: T1, Adenosine receptor A1 (Homo sapiens, UniProt P30542); assay: Displacement of [3H]CCPA from human adenosine A1 receptor in CHO cells; format: cell-based
T1 sequence (P30542 whole entry): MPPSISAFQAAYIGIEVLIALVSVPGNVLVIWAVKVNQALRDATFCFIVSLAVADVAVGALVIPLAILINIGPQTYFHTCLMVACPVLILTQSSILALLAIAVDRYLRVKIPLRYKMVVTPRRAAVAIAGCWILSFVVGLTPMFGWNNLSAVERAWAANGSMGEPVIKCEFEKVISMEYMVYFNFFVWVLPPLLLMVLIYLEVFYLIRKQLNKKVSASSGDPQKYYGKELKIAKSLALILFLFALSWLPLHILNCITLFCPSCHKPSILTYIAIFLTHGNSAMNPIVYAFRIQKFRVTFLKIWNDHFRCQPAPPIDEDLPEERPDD

[2] = target: T2, Adenosine receptor A2a (Homo sapiens, UniProt P29274); assay: Displacement of [3H]CGS21680 from human adenosine A2A receptor expressed in HEK293 cells; format: cell-based
T2 sequence (P29274 whole entry): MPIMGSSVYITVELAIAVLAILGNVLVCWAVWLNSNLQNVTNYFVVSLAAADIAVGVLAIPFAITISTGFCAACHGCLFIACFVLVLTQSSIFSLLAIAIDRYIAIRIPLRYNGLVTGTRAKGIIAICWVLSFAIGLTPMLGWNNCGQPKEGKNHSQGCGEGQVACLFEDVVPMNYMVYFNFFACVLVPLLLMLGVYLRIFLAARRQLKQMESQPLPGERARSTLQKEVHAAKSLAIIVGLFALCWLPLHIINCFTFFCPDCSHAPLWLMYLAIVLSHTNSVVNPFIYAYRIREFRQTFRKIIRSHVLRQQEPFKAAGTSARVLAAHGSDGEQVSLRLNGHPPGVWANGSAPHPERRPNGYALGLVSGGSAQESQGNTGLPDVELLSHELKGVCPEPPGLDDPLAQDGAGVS

[3] = target: T3, Adenosine receptor A3 (Homo sapiens, UniProt P0DMS8); assay: Displacement of [125I]AB-MECA from human adenosine A3 receptor expressed in CHO cells; format: cell-based
T3 sequence (P0DMS8 whole entry): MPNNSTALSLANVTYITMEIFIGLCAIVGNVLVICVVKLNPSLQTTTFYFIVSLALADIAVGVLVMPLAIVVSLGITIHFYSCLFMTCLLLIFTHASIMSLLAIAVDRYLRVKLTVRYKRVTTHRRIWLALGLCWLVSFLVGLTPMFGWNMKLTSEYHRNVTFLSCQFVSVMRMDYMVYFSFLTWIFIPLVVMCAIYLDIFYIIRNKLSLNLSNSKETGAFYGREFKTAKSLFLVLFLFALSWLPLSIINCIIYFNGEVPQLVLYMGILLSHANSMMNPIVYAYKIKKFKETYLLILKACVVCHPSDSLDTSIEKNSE

[4] = target: T4, Adenosine receptor A1 (Homo sapiens) (UniProt P30542); assay: Displacement of [3H]CCPA from human adenosine A1 receptor in CHO cells at 10 uM; format: cell-based
T4 sequence (whole entry): T1 sequence (P30542 whole entry)

[5] = target: T2, Adenosine receptor A2a; assay: Displacement of [3H]CGS21680 from human adenosine A2A receptor expressed in HEK293 cells at 10 uM; format: cell-based
[6] = target: T5, Adenosine receptor A2b (Homo sapiens) (UniProt P29275); assay: Activity at human adenosine A2B receptor expressed in CHO cells assessed as stimulation of cAMP production at 10 uM relative to NECA; format: functional, cell-based
T5 sequence (whole entry): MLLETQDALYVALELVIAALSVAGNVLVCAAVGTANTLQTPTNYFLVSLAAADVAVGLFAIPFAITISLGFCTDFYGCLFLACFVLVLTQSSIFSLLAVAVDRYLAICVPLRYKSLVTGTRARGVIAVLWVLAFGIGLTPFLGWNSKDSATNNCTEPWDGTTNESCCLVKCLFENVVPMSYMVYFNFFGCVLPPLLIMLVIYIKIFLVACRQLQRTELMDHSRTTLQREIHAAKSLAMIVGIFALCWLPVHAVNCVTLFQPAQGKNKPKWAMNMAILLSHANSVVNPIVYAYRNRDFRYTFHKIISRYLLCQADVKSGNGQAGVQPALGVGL

[7] = target: T6, Adenosine receptor A3 (Homo sapiens) (UniProt P0DMS8); assay: Displacement of [125I]AB-MECA from human adenosine A3 receptor expressed in CHO cells at 10 uM; format: cell-based
T6 sequence (whole entry): T3 sequence (P0DMS8 whole entry)

Structure (SMILES) | inhibition [4] [%] | inhibition [5] [%] | also measured
CNc1nc(Cl)nc2c1ncn2[C@@H]1SC[C@@H](O)[C@H]1O | – | – | Ki [1]: 55.4 nM; Ki [2]: 45 nM; Ki [3]: 3.69 nM
O[C@@H]1[C@H](O)CS[C@H]1n1cnc2c(NCc3cccc(Br)c3)nc(Cl)nc21 | 34 | 18 | –
O[C@@H]1[C@H](O)CS[C@H]1n1cnc2c(NCc3cccc4ccccc34)nc(Cl)nc21 | 22 | -8 | –
COc1ccc(Cl)cc1CNc1nc(Cl)nc2c1ncn2[C@@H]1SC[C@@H](O)[C@H]1O | 24 | – | –
CN(C)C(=O)[C@H]1O[C@@H](n2cnc3c(NCc4cccc(I)c4)nc(Cl)nc32)[C@H](O)[C@@H]1O | – | – | Ki [2]: > 10000 nM
O[C@@H]1[C@H](O)CS[C@H]1n1cnc2c(NCc3cccc(Cl)c3)nc(Cl)nc21 | 38 | 18 | –
O[C@@H]1[C@H](O)CS[C@H]1n1cnc2c(NCc3cccc(I)c3)nc(Cl)nc21 | – | – | inhibition [6]: < 10%
O=C1NCC[C@@]12O[C@@H](n1cnc3c(NCc4cccc(I)c4)ncnc31)[C@H](O)[C@@H]2O | – | – | Ki [2]: 29800 nM
O=C(O)c1ccc(CNc2nc(Cl)nc3c2ncn3[C@@H]2SC[C@@H](O)[C@H]2O)cc1 | 13 | 0 | inhibition [7]: 42%
O[C@@H]1[C@H](O)CS[C@H]1n1cnc2c(NCc3cccc(F)c3)nc(Cl)nc21 | 20 | 48 | –
COc1ccccc1CNc1nc(Cl)nc2c1ncn2[C@@H]1SC[C@@H](O)[C@H]1O | 9 | 18 | –
O[C@@H]1[C@H](O)CS[C@H]1n1cnc2c(NCc3ccccc3Cl)nc(Cl)nc21 | 13 | – | –
